Experimental data published in patent US9212138B2, “Use of derivatives of indoles for the treatment of cancer” (CENTRE NATIONAL DE LA RECHERCHE SCIENTIFIQUE, priority 2009, dated 2015).

Biological target: T1, MKLP-2 (RabK6) (Homo sapiens, UniProt O95235, S2A)
T1 construct: Expression clones for MKLP-21-519 (coding for residues 1 to 519) were obtained as follows; His-tag; made in house; host or cells: E. coli BL21(DE3)
T1 sequence (O95235 1-519 S2A limits assumed): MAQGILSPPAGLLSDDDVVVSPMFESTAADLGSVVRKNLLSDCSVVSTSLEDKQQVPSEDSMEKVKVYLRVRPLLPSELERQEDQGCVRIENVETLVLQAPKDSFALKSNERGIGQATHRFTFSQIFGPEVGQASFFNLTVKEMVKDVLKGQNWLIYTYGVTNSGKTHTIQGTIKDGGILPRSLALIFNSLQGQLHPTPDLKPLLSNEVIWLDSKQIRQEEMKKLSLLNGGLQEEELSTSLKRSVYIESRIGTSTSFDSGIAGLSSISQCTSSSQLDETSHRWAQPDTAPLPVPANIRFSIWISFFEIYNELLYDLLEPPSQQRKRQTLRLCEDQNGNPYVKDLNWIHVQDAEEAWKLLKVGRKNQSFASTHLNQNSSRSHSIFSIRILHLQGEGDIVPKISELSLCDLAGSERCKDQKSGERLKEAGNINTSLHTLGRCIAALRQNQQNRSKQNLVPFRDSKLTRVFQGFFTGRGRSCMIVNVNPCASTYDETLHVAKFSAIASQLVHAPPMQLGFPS
Test: biochemical
Settings: not given
Description: All experiments were performed at room temperature using a 96-well Sunrise photometer (Tecan, Maennedorf, Switzerland) at a final volume of 100 μl per well.
Steady-state ATPase rates were measured using the pyruvate kinase/lactate dehydrogenase-linked assay in buffer A25A (25 mM potassium ACES, pH 6.9, 2 mM MgAc2, 2 mM Na-EGTA, 0.1 mM Na-EDTA, 1 mM β-mercaptoethanol) supplemented with 1 mM MgATP; 2 mM PEP; 0.25 mM NADH; 3-10 μg/ml pyruvate kinase; 3 μg/ml lactate dehydrogenase and 8 μM taxol.
The data were analyzed using Kaleidagraph 3.0 (Synergy Software, Reading, Pa.) and Microsoft Excel to obtain the kinetic variables.
When necessary, the inhibitor concentrations were adapted depending on the initial IC50 value. Experiments were performed in triplicate and averaged data points are shown with error bars±SD.

SMILES	IC50
COc1ccc2[nH]cc(C(C)=Cc3cccnc3)c2c1 (racemic) [Example 59, 5-methoxy-3-(1-(pyridin-3-yl)prop-1-en-2-yl)-1H-indole]	< 5 µM
N#C/C(=C\c1cccnc1)c1c[nH]c2ccc(F)cc12 [Example 25, (Z)-2-(5-fluoro-1H-indol-3-yl)-3-pyridin-3-yl-acrylonitrile]	< 5 µM
COc1ccc2c(/C(C#N)=C/c3cccnc3)c[nH]c2c1 [Example 26, (Z)-2-(6-methoxy-1H-indol-3-yl)-3-pyridin-3-yl-acrylonitrile]	5 to 10 µM
COc1cccc2[nH]cc(/C(C#N)=C/c3cccnc3)c12 [Example 27, (Z)-2-(4-methoxy-1H-indol-3-yl)-3-pyridin-3-yl-acrylonitrile]	10 to 20 µM
COc1ccc2[nH]cc(/C(C#N)=C/c3ccc(F)nc3)c2c1 [Example 28, (Z)-3-(6-fluoropyridin-3-yl)-2-(5-methoxy-1H-indol-3-yl)-acrylonitrile]	< 5 µM
N#C/C(=C\c1cccnc1)c1c[nH]c2ccc(O)cc12 [Example 29, (Z)-2-(5-hydroxy-1H-indol-3-yl)-3-pyridin-3-yl-acrylonitrile]	< 5 µM
COc1ccc2[nH]cc(/C(C#N)=C/c3cccc(C#N)c3)c2c1 [Example 30, (Z)-3-[2-cyano-2-(5-methoxy-1H-indol-3-yl)-vinyl]-benzonitrile]	< 5 µM
COc1ccc2[nH]cc(/C(C#N)=C/c3cnccc3C)c2c1 [Example 31, (Z)-2-(5-methoxy-1H-indol-3-yl)-3-(4-methyl-pyridin-3-yl)-acrylonitrile]	< 5 µM
COc1ccc2[nH]cc(/C(C#N)=C/c3cccc(C(N)=O)c3)c2c1 [Example 32, (Z)-3-[2-cyano-2-(5-methoxy-1H-indol-3-yl)-vinyl]-benzamide]	10 to 20 µM
COc1ccc2[nH]cc(/C(C#N)=C/c3ccc[n+](C)c3)c2c1 [Example 33, (Z)-3-[2-cyano-2-(5-methoxy-1H-indol-3-yl)-vinyl]-1-methylpyridinium iodide]	10 to 20 µM
CCCc1nc2c(ccc3[nH]cc(/C(C#N)=C/c4cccnc4)c32)o1 [Example 34, (Z)-2-(2-propyl-6H-oxazolo[4,5-e]indol-8-yl)-3-(pyridin-3-yl)acrylonitrile]	> 50 µM
COc1cc(-c2ccc3[nH]cc(/C(C#N)=C/c4cccnc4)c3c2)cc(OC)c1OC [Example 38, (Z)-3-(pyridin-3-yl)-2-(5-(3,4,5-trimethoxyphenyl)-1H-indol-3-yl)-acrylonitrile]	5 to 10 µM
N#C/C(=C\c1cccnc1)c1c[nH]c2ccc(-c3ccc(F)cc3)cc12 [Example 39, (Z)-2-(5-(4-fluorophenyl)-1H-indol-3-yl)-3-(pyridin-3-yl)-acrylonitrile]	10 to 20 µM
COC(=O)Nc1ccc2[nH]cc(/C(C#N)=C/c3cccnc3)c2c1 [Example 41, (Z)-methyl 3-(1-cyano-2-(pyridin-3-yl)vinyl)-1H-indol-5-ylcarbamate]	< 5 µM
N#C/C(=C\c1cccc([N+](=O)[O-])c1)c1c[nH]c2ccccc12 [Example 42, (Z)-2-(1H-indol-3-yl)-3-(3-nitro-phenyl)-acrylonitrile]	> 50 µM
COc1ccc2[nH]cc(/C(C#N)=C/c3cccc([N+](=O)[O-])c3)c2c1 [Example 43, (Z)-2-(5-methoxy-1H-indol-3-yl)-3-(3-nitro-phenyl)-acrylonitrile]	> 50 µM
N#C/C(=C\c1cccc(N)c1)c1c[nH]c2ccccc12 [Example 44, (Z)-3-(3-amino-phenyl)-2-(1H-indol-3-yl)-acrylonitrile]	> 50 µM
COc1ccc2[nH]cc(/C(C#N)=C/c3cccc(N)c3)c2c1 [Example 45, (Z)-3-(3-amino-phenyl)-2-(5-methoxy-1H-indol-3-yl)-acrylonitrile]	> 50 µM
COc1cncc(/C=C(\C#N)c2c[nH]c3ccc(OC)cc23)c1 [Example 46, (Z)-2-(5-methoxy-1H-indol-3-yl)-3-(5-methoxy-pyridin-3-yl)-acrylonitrile]	10 to 20 µM
COc1ccc2[nH]cc(/C(C#N)=C/c3cnccc3Cl)c2c1 [Example 47, (Z)-3-(4-chloro-pyridin-3-yl)-2-(5-methoxy-1H-indol-3-yl)-acrylonitrile]	5 to 10 µM
COc1ccc2[nH]cc(/C(C#N)=C/c3cccnc3F)c2c1 [Example 48, (Z)-3-(2-fluoropyridin-3-yl)-2-(5-methoxy-1H-indol-3-yl)-acrylonitrile]	< 5 µM
COc1ccc2[nH]cc(/C(C#N)=C/c3ccc(Cl)nc3)c2c1 [Example 49, (Z)-3-(6-chloropyridin-3-yl)-2-(5-methoxy-1H-indol-3-yl)-acrylonitrile]	5 to 10 µM
COc1ccc2[nH]cc(/C(C#N)=C/c3ccsc3)c2c1 [Example 50, (Z)-2-(5-methoxy-1H-indol-3-yl)-3-thiophen-3-yl-acrylonitrile]	> 50 µM
COc1ccc2[nH]cc(/C(C#N)=C/c3cnn(C)c3)c2c1 [Example 51]	> 50 µM
COc1ccc2[nH]cc(/C(C#N)=C/c3ccc(OC)nc3)c2c1 [Example 52, (Z)-3-(6-methoxy-pyridin-3-yl)-2-(5-methoxy-1H-indol-3-yl)-acrylonitrile]	10 to 20 µM
COc1ccc2[nH]cc(/C(C#N)=C/c3ccc(C)nc3)c2c1 [Example 53, (Z)-2-(5-methoxy-1H-indol-3-yl)-3-(6-methylpyridin-3-yl)-acrylonitrile]	< 5 µM
COc1ccc2[nH]cc(/C(C#N)=C/c3ccc(C#N)nc3)c2c1 [Example 54, (Z)-5-[2-cyano-2-(5-methoxy-1H-indol-3-yl)-vinyl]-picolinonitrile]	5 to 10 µM

Same assay, conditions: basal ATPase activity, absence of MTs; read-out: RabK6 basal IC50 X

SMILES	IC50
N#C/C(=C\c1ccccn1)c1c[nH]c2ccccc12 [Example 3, (Z)-2-(1H-indol-3-yl)-3-pyridin-2-yl-acrylonitrile]	> 50 µM
COc1ccc2[nH]cc(/C(C#N)=C/c3cccnc3)c2c1 [Example 4, (Z)-2-(5-methoxy-1H-indol-3-yl)-3-pyridin-3-yl-acrylonitrile]	< 5 µM
N#C/C(=C\c1cccnc1)c1c[nH]c2ccc(OCc3ccccc3)cc12 [Example 5, (Z)-2-(5-benzyloxy-1H-indol-3-yl)-3-pyridin-3-yl-acrylonitrile]	> 50 µM
COc1ccc2[nH]cc(/C(C#N)=C/c3ccccn3)c2c1 [Example 6, (Z)-2-(5-methoxy-1H-indol-3-yl)-3-pyridin-2-yl-acrylonitrile]	10 to 20 µM
COc1ccc2[nH]cc(/C(C#N)=C/c3cc(OC)c(O)c(OC)c3)c2c1 [Example 7, (Z)-3-(4-hydroxy-3,5-dimethoxy-phenyl)-2-(5-methoxy-1H-indol-3-yl)-acrylonitrile]	20 to 50 µM
N#C/C(=C\c1ccccc1)c1c[nH]c2ccccc12 [Example 9, (Z)-2-(1H-indol-3-yl)-3-phenyl-acrylonitrile]	20 to 50 µM
N#C/C(=C\c1ccc2c(c1)OCO2)c1c[nH]c2ccccc12 [Example 11, (Z)-3-benzo[1,3]dioxol-5-yl-2-(1H-indol-3-yl)-acrylonitrile]	10 to 20 µM
COc1cc(/C=C(\C#N)c2c[nH]c3ccc(OC)cc23)cc(OC)c1 [Example 14, (Z)-3-(3,5-dimethoxy-phenyl)-2-(5-methoxy-1H-indol-3-yl)-acrylonitrile]	5 to 10 µM
N#C/C(=C\c1cncnc1)c1c[nH]c2ccccc12 [Example 15, (Z)-2-(1H-indol-3-yl)-3-pyrimidin-5-yl-acrylonitrile]	10 to 20 µM
COc1ccc2[nH]cc(/C(C#N)=C/c3cncnc3)c2c1 [Example 16, (Z)-2-(5-methoxy-1H-indol-3-yl)-3-pyrimidin-5-yl-acrylonitrile]	5 to 10 µM
COc1ccc2[nH]cc(C(C#N)Cc3cccnc3)c2c1 (stereo not shown) [Example 18, 2-(5-methoxy-1H-indol-3-yl)-3-pyridin-3-yl-propionitrile]	20 to 50 µM
CC(=O)Oc1ccc2[nH]cc(/C(C#N)=C/c3cccnc3)c2c1 [Example 20, 3-(1-cyano-2-(pyridin-3-yl)vinyl)-1H-indol-5-yl-acetate]	< 5 µM
COCC(=O)Oc1ccc2[nH]cc(/C(C#N)=C/c3cccnc3)c2c1 [Example 21, 3-(1-cyano-2-(pyridin-3-yl)vinyl)-1H-indol-5-yl-methoxyacetate]	5 to 10 µM
CCOc1ccc2[nH]cc(/C(C#N)=C/c3cccnc3)c2c1 [Example 22, (Z)-2-(5-ethoxy-1H-indol-3-yl)-3-pyridin-3-yl-acrylonitrile]	< 5 µM
CC(C)Oc1ccc2[nH]cc(/C(C#N)=C/c3cccnc3)c2c1 [Example 23, (Z)-2-(5-isopropoxy-1H-indol-3-yl)-3-pyridin-3-yl-acrylonitrile]	< 5 µM
N#C/C(=C\c1cccnc1)c1c[nH]c2ccc(Cl)cc12 [Example 24, (Z)-2-(5-chloro-1H-indol-3-yl)-3-pyridin-3-yl-acrylonitrile]	< 5 µM
